Assay results from paper PMC6161027, “In Vitro Stimulation of Multidrug Resistance-Associated Protein 2 Function Is Not Reproduced In Vivo in Rats” (Pharmaceutics, 2018).
Several values for one entry are separate records, joined by “and”; a condition that tells them apart may be missing. Equal entries are not always repeated. Entries after “also recorded” stand apart in the source; their conditions may differ. Structures can show the parent of a compound that is named as a salt. Where two headings read alike, the source gives them in different places.

Experiments:
[1] = Plasma and liver concentrations of modulators after i.v. infusion in rats; format: in vivo; conditions: Sprague-Dawley, rat; for Kp at 3 h: liver at terminal time point (3 h); for Cmax: plasma, iv
Mrp2 [2] = molecular target: T1, Mrp2 (Rattus norvegicus, UniProt Q63120); assay: Biliary and renal secretion of endogenous CP-I and CP-III in bile duct cannulated rats before and after modulators; conditions: for Bile Flow: cumulative volume / total collection time, mean ± SD, three animals; for Mrp2-mediated CP-I transport in vivo (biliary clearance, cumulative amount in bile) before and after treatment: bile duct cannulated rats
T1 sequence (Q63120 whole entry): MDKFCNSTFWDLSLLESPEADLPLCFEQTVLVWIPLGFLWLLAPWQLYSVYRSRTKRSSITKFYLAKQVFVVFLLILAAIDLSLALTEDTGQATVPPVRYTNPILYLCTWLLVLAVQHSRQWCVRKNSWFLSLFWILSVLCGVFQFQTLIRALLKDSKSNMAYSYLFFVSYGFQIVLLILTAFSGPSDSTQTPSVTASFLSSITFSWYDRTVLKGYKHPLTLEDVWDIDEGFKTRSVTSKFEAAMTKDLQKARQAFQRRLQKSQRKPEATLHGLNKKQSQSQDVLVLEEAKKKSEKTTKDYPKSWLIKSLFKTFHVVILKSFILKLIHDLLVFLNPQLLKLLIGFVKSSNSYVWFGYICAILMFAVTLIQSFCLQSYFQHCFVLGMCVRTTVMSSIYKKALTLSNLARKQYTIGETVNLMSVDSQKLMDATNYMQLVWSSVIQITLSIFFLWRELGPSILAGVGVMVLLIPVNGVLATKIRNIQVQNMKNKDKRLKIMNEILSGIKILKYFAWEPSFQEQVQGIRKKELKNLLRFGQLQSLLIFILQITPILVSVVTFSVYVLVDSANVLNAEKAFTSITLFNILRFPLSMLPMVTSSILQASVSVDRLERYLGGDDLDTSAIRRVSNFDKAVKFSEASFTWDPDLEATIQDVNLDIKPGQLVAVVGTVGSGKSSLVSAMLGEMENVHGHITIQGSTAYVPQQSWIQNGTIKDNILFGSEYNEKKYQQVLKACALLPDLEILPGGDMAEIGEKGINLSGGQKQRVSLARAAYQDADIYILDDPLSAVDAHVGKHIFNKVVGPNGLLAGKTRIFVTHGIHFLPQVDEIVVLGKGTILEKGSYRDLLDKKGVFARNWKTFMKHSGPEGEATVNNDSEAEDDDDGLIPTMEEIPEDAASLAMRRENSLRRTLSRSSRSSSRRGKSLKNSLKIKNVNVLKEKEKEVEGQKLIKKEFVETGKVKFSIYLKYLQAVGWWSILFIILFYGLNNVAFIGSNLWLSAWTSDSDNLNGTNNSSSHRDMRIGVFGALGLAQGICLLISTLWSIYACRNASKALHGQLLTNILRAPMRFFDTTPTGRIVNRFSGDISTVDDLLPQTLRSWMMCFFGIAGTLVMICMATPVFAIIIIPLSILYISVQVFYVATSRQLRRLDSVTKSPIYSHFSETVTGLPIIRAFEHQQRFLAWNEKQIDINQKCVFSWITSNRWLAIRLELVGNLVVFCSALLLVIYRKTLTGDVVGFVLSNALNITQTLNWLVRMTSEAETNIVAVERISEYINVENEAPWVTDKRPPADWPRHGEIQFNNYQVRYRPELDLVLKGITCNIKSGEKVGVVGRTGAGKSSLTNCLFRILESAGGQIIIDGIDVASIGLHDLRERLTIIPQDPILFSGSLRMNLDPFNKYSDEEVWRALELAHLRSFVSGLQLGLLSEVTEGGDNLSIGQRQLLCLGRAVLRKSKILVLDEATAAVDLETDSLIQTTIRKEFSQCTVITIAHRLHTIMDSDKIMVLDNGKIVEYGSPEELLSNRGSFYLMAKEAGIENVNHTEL

[3] = rat, in vivo
in vitro = conditions: tissue homogenate
rat Mrp2 [4] = molecular target: T2, rat Mrp2 (Rattus norvegicus, UniProt Q63120); conditions: for % Net decrease in ATP-dependent CP-I uptake in presence of bilirubin: bilirubin 10 µM, uptake with modulator alone as control, duplicate wells
T2 sequence (Q63120 whole entry): as above
Experimental: Figure 3 Effect of bilirubin on the transport of CP-I using rat Mrp2 vesicles in the presence and absence of modulators. Rat Mrp2 vesicles (50 µg/well) were preincubated with and without bilirubin (10 µM) and modulators for 3 min at 37 °C. % Net decrease in ATP-dependent CP-I uptake in presence of bilirubin was calculated by taking CP-I uptake values in presence of modulators as control. All data values presented as mean of single experiment performed in duplicate wells.

rat Mrp2 [5] = molecular target: T2, rat Mrp2; conditions: for effect on rat Mrp2-mediated CP-I transport in vitro: 15 min, result in words
Experimental: Rat Mrp2-mediated CP-I transport was measured in inside-out membrane vesicles. Mrp2 vesicle protein (50 µg/well) were preincubated with modulators at above reported concentrations at 37 °C and reaction was started by adding CP-I (5 µM) and incubated for 15 min. NP; not performed. For more on experimental details refer to Section 2.3. Dotted line represents basal level (100%) of CP-I uptake in control wells in the presence of ATP with no modulators added. All data values presented as mean and SD of single experiment performed in triplicate wells.

human MRP2 = conditions: cited from earlier work; for stimulation of CP-I transport in human MRP2 vesicles / effect on MRP2 when CP-I is used as probe substrate: result in words ref 10
Mrp2 [6] = test system: Mrp2; parameters: method as in PMID 15194559; conditions: rats ref 17; cited from earlier work
[7] = parameters: method as in PMID 11457649, PMID 9521735; conditions: humans, in presence of dapsone ref 22, 23; cited from earlier work
[8] = test system: flurbiprofen metabolism in liver microsome; parameters: method as in PMID 11457649, PMID 9521735; conditions: in presence of dapsone ref 22, 23; cited from earlier work
Mrp2 [9] = test system: Mrp2; parameters: method as in PMID 19118132; conditions: cited from earlier work
Mrp2 [10] = test system: Mrp2; parameters: method as in PMID 27964938; conditions: in the presence of metformin, plasma exposure not affected ref 9; cited from earlier work
Oatp = assay: CP-I uptake in suspended rat hepatocytes with and without rifamycin SV; format: cell-based; conditions: rifamycin SV 1 mM, CP-I 0.5 µM, 37 °C, result in words
Mrp2 [11] = molecular target: T1, Mrp2; conditions: in vivo
rat Mrp2 [12] = molecular target: T2, rat Mrp2

Compound: O=C1c2c(O)ccc(O)c2C(=O)c2c(NCCNCCO)ccc(NCCNCCO)c21 [Mitoxantrone, Mitoxantrone hydrochloride]
- concentration at 3 h ([1]; intravenous, 6 mg/kg i.v., liver homogenate, LC-MS/MS, read-out: Liver Total Concentrations): 854 µM
- concentration at 3 h ([1]; intravenous, 15 mg/kg i.v., liver homogenate, LC-MS/MS, read-out: Liver Total Concentrations): 950 µM
- concentration at 3 h ([1]; liver (unbound), intravenous, 6 mg/kg i.v., Fu,liver x total liver concentration, read-out: Liver Unbound Concentrations): 0.26 µM
- Kp at 3 h ([1]; liver/plasma, intravenous, 6 mg/kg i.v., read-out: Liver to Plasma Ratio): 199
- Kp at 3 h ([1]; liver/plasma, intravenous, 15 mg/kg i.v., read-out: Liver to Plasma Ratio): 202
- Cmax ([1]; 6 mg/kg i.v.): 4.3 µM
- Cmax ([1]; 15 mg/kg i.v.): 4.7 µM
- Bile Flow (Mrp2 [2]; after mitoxantrone 6 mg/kg i.v.): 1.05 ± 0.11 mL/h
- Bile Flow (Mrp2 [2]; after mitoxantrone 15 mg/kg i.v.): 1.38 ± 0.56 mL/h
- Mrp2-mediated CP-I transport in vivo (biliary clearance, cumulative amount in bile) before and after treatment (Mrp2 [2]; result in words): no significant difference
- biliary excretion of CP-I and III (Mrp2 [2]; mitoxantrone 6 mg/kg, between 0.25 and 0.5 h, result in words): significant increase
- biliary secretion of CP-I (Mrp2 [2]; mitoxantrone 15 mg/kg, from 0.33 to 1.25 h, result in words): decreased
- toxicity limiting the dose [3]: observed toxicity
- fraction unbound at 6 h, 10 µM (in vitro): 0.0003
- % Net decrease in ATP-dependent CP-I uptake in presence of bilirubin (rat Mrp2 [4]; modulator 200 µM): 34% and 42%
- concentration from which in vitro stimulation started (rat Mrp2 [5]): ≥ 1 µM
- effect on rat Mrp2-mediated CP-I transport in vitro (rat Mrp2 [5]; CP-I 5 µM): strongest stimulator; also recorded: stimulated
- concentrations giving inhibition of Mrp2 mediated CP-I transport (rat Mrp2 [5]; bell-shaped curve, higher concentrations): > 250 µM
- concentrations giving stimulation of Mrp2 mediated CP-I transport (rat Mrp2 [5]; bell-shaped curve, lower concentrations): up to 250 µM
- stimulation of CP-I transport in human MRP2 vesicles (human MRP2): significant stimulation

Compound: CC(=O)[C@H]1CC[C@H]2[C@@H]3CCC4=CC(=O)CC[C@]4(C)[C@H]3CC[C@]12C [Progesterone, progesterone]
- concentration at 2 h ([1]; intravenous, 1 mg/kg i.v., liver homogenate, LC-MS/MS, read-out: Liver Total Concentrations): 197 µM
- concentration at 2 h ([1]; liver (unbound), intravenous, 1 mg/kg i.v., Fu,liver x total liver concentration, read-out: Liver Unbound Concentrations): 1.86 µM
- Kp at 2 h ([1]; liver/plasma, intravenous, 1 mg/kg i.v., liver at terminal time point (2 h), read-out: Liver to Plasma Ratio): 1.2
- Cmax ([1]; 1 mg/kg i.v.): 165 µM
- Bile Flow (Mrp2 [2]; after progesterone 1 mg/kg i.v.): 1.62 ± 0.39 mL/h
- Mrp2-mediated CP-I transport in vivo (biliary clearance, cumulative amount in bile) before and after treatment (Mrp2 [2]; result in words): did not stimulate
- biliary secretion of CP-III (Mrp2 [2]; progesterone 1 mg/kg, from 0.17 to 1.5 h, result in words): significant decrease
- fraction unbound at 6 h, 10 µM (in vitro): 0.0094
- % Net decrease in ATP-dependent CP-I uptake in presence of bilirubin (rat Mrp2 [4]; modulator 100 µM): 17% and 12%
- effect on rat Mrp2-mediated CP-I transport in vitro (rat Mrp2 [5]; CP-I 5 µM): stimulated
- stimulation of Mrp2 mediated transport of CP-I (rat Mrp2 [5]; modulator 1 µM, CP-I 5 µM): > 1.5 fold
- stimulation of CP-I transport in human MRP2 vesicles (human MRP2): significant stimulation

Compound: CCc1oc2ccccc2c1C(=O)c1cc(Br)c(O)c(Br)c1 [benzbromarone]
- effect on MRP2 when CP-I is used as probe substrate (human MRP2): inhibitors

Compound: CC1(C)S[C@@H]2[C@H](NC(=O)Cc3ccccc3)C(=O)N2[C@H]1C(=O)O [benzyl penicillin]
- transient enhancement of biliary clearance of glutathione (GSH) (Mrp2 [6]): about four-fold

Compound: C=CC1=C(C)/C(=C/c2[nH]c(Cc3[nH]c(/C=C4\NC(=O)C(C)=C4C=C)c(C)c3CCC(=O)O)c(CCC(=O)O)c2C)NC1=O [bilirubin]
- effect on in vitro stimulation of Mrp2-mediated CP-I transport (rat Mrp2 [4]; 10 µM, result in words): suppressed

Compound: Nc1ccc(S(=O)(=O)c2ccc(N)cc2)cc1 [dapsone]
- increase in flurbiprofen clearance [7]: 10%
- stimulation of flurbiprofen metabolism [8]: two-fold

Compound: COc1ccc2c(c1)c(CC(=O)O)c(C)n2C(=O)c1ccc(Cl)cc1 [indomethacin]
- decrease of E17βG half-life (Mrp2 [9]; rats ref 16): 40%
- effect on E17βG biliary clearance (Mrp2 [9]; rats, result in words ref 16): increases
- effect on MRP2 when CP-I is used as probe substrate (human MRP2): inhibitors

Compound: CN(C)C(=N)N=C(N)N [metformin]
- increase of atorvastatin liver concentration (Mrp2 [10]): 1.64 fold

Compound: CO[C@H]1/C=C/O[C@@]2(C)Oc3c(C)c(O)c4c(O)c(cc(O)c4c3C2=O)NC(=O)/C(C)=C\C=C\[C@H](C)[C@H](O)[C@@H](C)[C@@H](O)[C@@H](C)[C@H](OC(C)=O)[C@@H]1C [rifamycin, rifamycin SV]
- effect on CP-I uptake in isolated rat hepatocytes (Oatp): rifamycin sensitive

Compound: coproporphyrin-I [CP-I]
- average biliary clearance relative to CP-III (Mrp2 [11]): four-fold higher
- basal level excreted in rat bile in 2 h (Mrp2 [11]): about 600 pmoles
- Km (rat Mrp2 [12]): 15 ± 6 µM
- apparent Vmax (rat Mrp2 [12]; CP-I uptake, rat Mrp2 membrane vesicles, 37 °C, 15 min, mean ± SD): 161 ± 20 pmol/min/mg protein
- ATP over AMP ratio of CP-I uptake (rat Mrp2 [12]; rat Mrp2 membrane vesicles): 23
- Km (human MRP2): 7.7 µM

Compound: coproporphyrin-III [CP-III]
- urinary clearance relative to CP-I (Mrp2 [2]; control experiments): three-fold higher
- basal level excreted in rat bile in 2 h (Mrp2 [2]; endogenous, no modulator): ~1200 pmol
- plasma AUC (0–2 h), basal (Mrp2 [2]; endogenous, no modulator): ~9.5 nM·h
- basal plasma levels relative to CP-I (Mrp2 [2]; rats): three-four times higher
